Tested on: patients suffering hair loss and numbness due to diabetic neuropathy
Test: Repetitive topical application of minoxidil in patients suffering hair loss and numbness due to diabetic neuropathy
Format: in vivo
Details: twice a day, approximately 1 mL per day, 2-5% minoxidil
Protocol: In an illustrative test with repetitive topical application of minoxidil as a VGIA 120a in patients suffering hair loss and numbness due to diabetic neuropathy, hair growth, nail growth, and temperature perception (restoration of innervation) was achieved on the leg within 2-3 weeks. The minoxidil was applied twice a day in a quantity of approximately 1 mL per day in a concentration of 2-5% minoxidil.

Nc1cc(N2CCCCC2)nc(N)[n+]1[O-] [minoxidil]
2-3 weeks: hair growth achieved on the leg (time) | temperature perception (restoration of innervation) achieved on the leg (time) | nail growth achieved (time) (leg)
